# Experimental data reported in patent US8765728B2, “[1,5]-diazocin derivatives” (MelliTech, priority 2009, dated 2014).
# Tested on: Min6 cell
# Assay: Insulin secretion response of beta cell line to formula I compounds (insulin ELISA)
# Type: cell-based
# Conditions: rank according to % increase versus control at most effective dose
# Outline: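 After compound or vehicle exposure, Min6 cells were held 2 h in glucose-free medium and preincubated 30 min at 37° C in glucose-free KRBH (pH 7.4, 0.1% BSA). They were then incubated 30 min at 37° C in KRBH with varying glucose. Secreted insulin and acid-ethanol-extracted intracellular insulin were measured by ELISA.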
row,Compound,Insulin secretion (Min6 cell) Range 1 to 5
1,"O=C(c1ncoc1-c1ccccc1)N1CCC(=O)N(C2CC2)Cc2cccnc21 [Compound 103, 5-cyclopropyl-1-(5-phenyloxazole-4-carbonyl)-2,3,5,6-tetrahydropyrido[2,3-b][1,5]diazocin-4(1H)-one]",2 (2: 110-120% of control)
2,"Cc1cc(C(=O)N2CCC(=O)N(C3CC3)Cc3cccnc32)no1 [Compound 104, 5-cyclopropyl-1-(5-methylisoxazole-3-carbonyl)-2,3,5,6-tetrahydropyrido[2,3-b][1,5]diazocin-4(1H)-one]",4 (4: 140-170% of control)
3,"O=C1CCN(C(=O)c2ccno2)c2cc3c(cc2CN1CC1CC1)OCO3 [Compound 159, 9-(cyclopropylmethyl)-5-(isoxazol-5-ylcarbonyl)-6,7,9,10-tetrahydro[1,3]dioxolo[4,5-i][1,5]benzodiazocin-8(5H)-one]",1 (1: 90-110% of control)
4,"COc1cccc(C(O)CN2CCC(=O)N(C3CC3)Cc3cc(OC)ccc32)c1 (stereo not drawn) [Compound 30, 5-cyclopropyl-1-(2-hydroxy-2-(3-methoxyphenyl)ethyl)-8-methoxy-2,3,5,6-tetrahydrobenzo[b][1,5]diazocin-4(1H)-one]",1 (1: 90-110% of control)
5,"O=C(c1ncoc1-c1ccccc1)N1CCC(=O)N(C2CC2)Cc2c1ccc1c2OCCO1 [Compound 92, 11-cyclopropyl-7-[(5-phenyl-1,3-oxazol-4-yl)carbonyl]-2,3,8,9,11,12-hexahydro[1,4]dioxino[2,3-h][1,5]benzodiazocin-10(7H)-one]",1 (1: 90-110% of control)
6,"O=C1CCN(C[C@@H](O)COCc2ccccc2)c2ccc(F)cc2CN1C1CC1 [Compound 19, (R)-1-(3-(benzyloxy)-2-hydroxypropyl)-5-cyclopropyl-8-fluoro-2,3,5,6-tetrahydrobenzo[b][1,5]diazocin-4(1H)-one]",1 (1: 90-110% of control)
7,"O=C1CCNc2ccc(Br)cc2CN1C1CC1 [Compound 7, 8-bromo-5-cyclopropyl-2,3,5,6-tetrahydrobenzo[b][1,5]diazocin-4(1H)-one]",1 (1: 90-110% of control)
8,"O=C1CCN(CCc2ccccc2)c2ccc(F)cc2CN1C1CC1 [Compound 73, 5-cyclopropyl-8-fluoro-1-phenethyl-2,3,5,6-tetrahydrobenzo[b][1,5]diazocin-4(1H)-one]",4 (4: 140-170% of control)
9,"9-ethyl-5-(2-hydroxy-3-phenylpropyl)-6,7,9,10-tetrahydro[1,3]dioxolo[4,5-i][1,5]benzodiazocin-8(5H)-one [Compound 165]",1 (1: 90-110% of control)
10,"O=C1CCN(CC(O)c2ccc(Cl)cc2)c2ccc(F)cc2CN1C1CC1 (stereo not drawn) [Compound 50, 1-(2-(4-chlorophenyl)-2-hydroxyethyl)-5-cyclopropyl-8-fluoro-2,3,5,6-tetrahydrobenzo[b][1,5]diazocin-4(1H)-one]",2 (2: 110-120% of control)
11,"COc1ccc2c(c1OC(F)F)CN(C1CC1)C(=O)CCN2C[C@@H](O)COc1ccc(Cl)cc1 [Compound 134, (R)-1-(3-(4-chlorophenoxy)-2-hydroxypropyl)-5-cyclopropyl-7-(difluoromethoxy)-8-methoxy-2,3,5,6-tetrahydrobenzo[b][1,5]diazocin-4(1H)-one]",1 (1: 90-110% of control)
12,"O=C(c1ccno1)N1CCC(=O)N(C2CC2)Cc2c1ccc1c2OCCO1 [Compound 91, 11-cyclopropyl-7-(isoxazol-5-ylcarbonyl)-2,3,8,9,11,12-hexahydro[1,4]dioxino[2,3-h][1,5]benzodiazocin-10(7H)-one]",1 (1: 90-110% of control)
13,"OC(CN1CCCN(C2CC2)Cc2cc(F)ccc21)c1ccc(Cl)cc1 (stereo not drawn) [Compound 145, 1-(4-chlorophenyl)-2-(5-cyclopropyl-8-fluoro-3,4,5,6-tetrahydrobenzo[b][1,5]diazocin-1(2H)-yl)ethanol]",3 (3: 120-140% of control)
14,"Cc1cc(C(=O)N2CCC(=O)N(C3CC3)Cc3cc(Cl)ccc32)on1 [Compound 139, 8-chloro-5-cyclopropyl-1-(3-methylisoxazole-5-carbonyl)-2,3,5,6-tetrahydrobenzo[b][1,5]diazocin-4(1H)-one]",1 (1: 90-110% of control)
15,"C[C@H](O)CN1CCC(=O)N(C2CC2)Cc2c1ccc1c2OCCO1 [Compound 146, (S)-11-cyclopropyl-7-(2-hydroxypropyl)-2,3,8,9,11,12-hexahydro-[1,4]dioxino[2′,3′:3,4]benzo[1,2-b][1,5]diazocin-10(7H)-one]",5 (5: >170% of control)
